For series [1], the system named is primarily cultivated endothelial cells derived from bovine aortas. The series is described as follows: Test 2: functional assay, stimulation of intracellular cGMP production in endothelial cells. The format is cell-based. To be noted: for EC50: Bos taurus, Endothelial cell, production of intracellular cGMP, marker for NO production and release, radioimmunoassay; for stimulatory effect on cGMP after preincubation with a selective angiotensin-(1-7) receptor antagonist: preincubation with [D-Ala^7]-angiotensin-(1-7); for effect on the production of cGMP after preincubation with an AT1 receptor antagonist: preincubation with angiotensin II AT1 subtype antagonist, such as EXP3174; for effect on the production of cGMP after preincubation with an AT2 receptor antagonist: preincubation with angiotensin II AT2 subtype antagonist, such as PD 123,319. How it is done:
The stimulatory effect of the compounds of formula (I) on the production of intracellular cGMP, which is a marker for the production and release of NO in endothelial cells, was measured on primarily cultivated endothelial cells derived from bovine aortas, as described, for example, in J. Pharmacol. Exp. Ther. (1992) 262:729-733, herein incorporated by reference.
After having been enzymatically digested (dispase II; Boehringer, Mannheim) from the bovine aorta, the endothelial cells were taken up in culture medium (Dulbecco's modified Eagle's Ham's F 12 medium 1:1 containing penicillin (10 U/L), streptomycin (10 ug/L), L-glutamine (1 mmol/L), glutathione and L-(+)-ascorbic acid (in each case 5 mg/L) and heat-inactivated fetal calf serum (20%)), washed once (centrifugation at 170×g, 10 min) and resuspended in culture medium. This cell suspension was seeded in 6-well plates (Nunc Intermed, Wiesbaden) (˜250 μg of protein or […] per well), with the wells then being filled with culture medium and the plates kept at 37° C. in an incubator which was moistened and gassed with 95% O2-5% CO2.
After confluence had been reached (6-8 days after seeding), the culture medium was removed and the cell monolayer was washed twice with warm HEPES/Tyrode's solution. After that, the cells were preincubated, at 37° C. for 15 min, in HEPES/Tyrode's solution containing IBMX (3-isobutyl-1-methylxanthine, 10^−4 mol/L, Serva, Heidelberg). The incubation was started by adding SOD (bovine erythrocyte superoxide dismutase, 3×10^−7 mol/L, Serva, Heidelberg) and the test substances of formula (I) at the given concentrations. After the appropriate incubation time, the incubation medium was aspirated and the cells which remained behind were immediately extracted in 1 N formic acid/acetone (v/v, 15:85) and scraped off. The resulting suspension was ultrasonicated (10 sec) and then centrifuged down (3000×g, 10 min). For the purpose of determining cGMP by means of radioimmunoassay (New England Nuclear, Boston, Mass.), the supernatant was lyophilized and the lyophilisate taken up in sodium acetate buffer (0.05 mol/L; pH 6.2). The content (pmol) of intracellular cGMP was related to mg of cell protein.

Each structure is given as a SMILES string.

The record followed here is patent US6984660B2, “P-thienylbenzylamides as agonists of angiotensin-(1-7) receptors, and methods of their preparation and use” (Aventis Pharma Deutschland GmbH, priority 2001, dated 2006).

By EC50 is commonly meant the concentration giving half of the maximal effect. Read a high EC50 as a less potent agent. What is called melting point is the temperature, or range, at which the solid turns liquid.

On to `CCNC(=O)NS(=O)(=O)c1sc(CC(C)C)cc1-c1ccc(CN(C(=O)c2ccccc2)[C@H](C(=O)OC)C(C)C)cc1` [Example 4, Methyl 2-N-benzoyl-2-N-[4-[2-(ethylaminocarbonylsulfonamido)-5-isobutyl-3-thienyl]benzyl]amino-3-methyl-L-butyrate], for which the melting point amounted to 65 °C. In series [1], the concentration for a half-maximal effect (EC50) turned out to be 600 nM, the “stimulatory effect on cGMP after preincubation with a selective angiotensin-(1-7) receptor antagonist” value is reported as “inhibited”, the “effect on the production of cGMP after preincubation with an AT1 receptor antagonist” value is recorded as “not influenced” and the “effect on the production of cGMP after preincubation with an AT2 receptor antagonist” value was “not influenced”.
For `CCNC(=O)NS(=O)(=O)c1sc(CC(C)C)cc1-c1ccc(CN(C(=O)c2ccccc2)[C@H](C(=O)OCC)C(C)C)cc1` [Example 5, Ethyl 2-N-benzoyl-2-N-[4-[2-(ethylaminocarbonylsulfonamido)-5-isobutyl-3-thienyl]benzyl]amino-3-methyl-L-butyrate], the melting point was 88 to 90 °C.
On to `CCNC(=O)NS(=O)(=O)c1sc(CC(C)C)cc1-c1ccc(CN(C(=O)c2ccccc2)[C@H](C(=O)O)C(C)C)cc1` [Example 6, 2-N-Benzoyl-2-N-[4-[2-(ethylaminocarbonylsulfonamido)-5-isobutyl-3-thienyl]benzyl]amino-3-methyl-L-butyric acid], for which the melting point stood at 149 °C.
Take `CCNC(=O)NS(=O)(=O)c1sc(CC(C)C)cc1-c1ccc(CN(C(C)=O)[C@H](C(=O)OC)C(C)C)cc1` [Example 9, Methyl 2-N-acetyl-2-N-[4-[2-(ethylaminocarbonylsulfonamido)-5-isobutyl-3-thienyl]benzyl]amino-3-methyl-L-butyrate]: the melting point was 130 °C. Besides, in series [1], a half-maximal effect (EC50) was put at 40 nM, the “stimulatory effect on cGMP after preincubation with a selective angiotensin-(1-7) receptor antagonist” value was “inhibited”, the “effect on the production of cGMP after preincubation with an AT1 receptor antagonist” value was “not influenced” and the “effect on the production of cGMP after preincubation with an AT2 receptor antagonist” value was “not influenced”.
For `CCNC(=O)NS(=O)(=O)c1sc(CC(C)C)cc1-c1ccc(CN(C(C)=O)[C@H](C(=O)OCC)C(C)C)cc1` [Example 10, Ethyl 2-N-acetyl-2-N-[4-[2-(ethylaminocarbonylsulfonamido)-5-isobutyl-3-thienyl]benzyl]amino-3-methyl-L-butyrate], the melting point worked out at 81 °C.
With `CCNC(=O)NS(=O)(=O)c1sc(CC(C)C)cc1-c1ccc(CN(C(C)=O)[C@H](C(=O)O)C(C)C)cc1` [Example 11, 2-N-Acetyl-2-N-[4-[2-(ethylaminocarbonylsulfonamido)-5-isobutyl-3-thienyl]benzyl]amino-3-methyl-L-butyric acid], the melting point was found to be 136 °C.
Compound `CCCCOC(=O)NS(=O)(=O)c1sc(CC(C)C)cc1-c1ccc(CN(C(=O)c2ccco2)[C@H](C(=O)O)C(C)C)cc1` [Example 13, 2-N-(2-Furanoyl)-2-N-[4-[2-(n-butyloxycarbonylsulfonamido)-5-isobutyl-3-thienyl]benzyl]amino-3-methyl-L-butyric acid] showed a melting point of 93 °C.
Regarding `CNC(=O)NS(=O)(=O)c1sc(CC(C)C)cc1-c1ccc(CN(C(=O)c2ccco2)[C@H](C(=O)OC)C(C)C)cc1` [Example 14, Methyl 2-N-(2-furanoyl)-2-N-[4-[2-(methylaminocarbonylsulfonamido)-5-isobutyl-3-thienyl]benzyl]amino-3-methyl-L-butyrate], the melting point amounted to 84 °C.
`CNC(=O)NS(=O)(=O)c1sc(CC(C)C)cc1-c1ccc(CN(C(=O)c2ccco2)[C@H](C(=O)O)C(C)C)cc1` [Example 15, 2-N-(2-Furanoyl)-2-N-[4-[2-(methylaminocarbonylsulfonamido)-5-isobutyl-3-thienyl]benzyl]amino-3-methyl-L-butyric acid] came in with a melting point of 134 °C.
As to `CCCCOC(=O)NS(=O)(=O)c1sc(CC(C)C)cc1-c1ccc(CN(C(=O)CCC(=O)O)[C@H](C(=O)O)C(C)C)cc1` [Example 17, 2-N-(3-Carboxypropionyl)-2-N-[4-[2-(n-butyloxycarbonylsulfonamido)-5-isobutyl-3-thienyl]benzyl]amino-3-methyl-L-butyric acid], the melting point worked out at 66 °C.
As to `CNC(=O)NS(=O)(=O)c1sc(CC(C)C)cc1-c1ccc(CN(C(=O)CCC(=O)OC)[C@H](C(=O)OC)C(C)C)cc1` [Example 18], the melting point was 158 °C.
